Test results: patent US20100055113A1, “CELLULAR RECEPTOR FOR ANTIPROLIFERATIVE FACTOR” (The University of Maryland, Baltimore, priority 2006, published 2010)
Each block holds one molecule with its values, some of them ahead of it. Ends that are not written are not given here. glycan = not defined here

Key:
[1] = test system: CKAP4/p63; assay: Western blot of CKAP4/p63 protein expression after siRNA electroporation; type: cell-based, human; details: normal bladder epithelial cells, electroporation with siRNA; FIG. 5A
Protocol: Solubilized high affinity APF-binding bladder epithelial cell proteins were prepared as described above. Solubilized bladder epithelial cell membrane proteins were prepared by rinsing cells in the culture flasks with ice cold PBS, then scraping the cells into ice-cold extraction buffer (20 mM Tris/HCL, pH 7.4, containing 50 μg/ml PMSF, 2 μg/ml aprotinin, 100 μM tosyl-lysine-chloromethyl-ketone, 1 μM pepstatin A, and 1 μg/ml diisopropylfluorophosphate). The cell slurry was then vortexed until homogeneous, and centrifuged at 4° C. for 10 minutes at 14,000 rpm. Supernatant was removed, and the pelleted membrane fraction was washed once with ice cold extraction buffer, repelleted, and proteins were solubilized using ice cold extraction buffer containing 1% Triton X-100. Solubilized total cell proteins were extracted into ice cold RIPA buffer containing 1.0% NP40, as previously described (Keay et al., 2003). Protein concentration of solubilized protein samples was measured using a Folin reagent-based protein assay kit (Bio-Rad). […]

[2] = target: T1, CKAP4/p63 (Homo sapiens, UniProt Q07065); assay: Sensitivity of siRNA-electroporated normal bladder epithelial cells to APF (thymidine incorporation); type: cell-based; details: electroporation with siRNA, FIG. 5B
T1 construct: endogenous in cells; host or cells: explanted primary normal human bladder epithelial cells
T1 sequence (Q07065 1-602): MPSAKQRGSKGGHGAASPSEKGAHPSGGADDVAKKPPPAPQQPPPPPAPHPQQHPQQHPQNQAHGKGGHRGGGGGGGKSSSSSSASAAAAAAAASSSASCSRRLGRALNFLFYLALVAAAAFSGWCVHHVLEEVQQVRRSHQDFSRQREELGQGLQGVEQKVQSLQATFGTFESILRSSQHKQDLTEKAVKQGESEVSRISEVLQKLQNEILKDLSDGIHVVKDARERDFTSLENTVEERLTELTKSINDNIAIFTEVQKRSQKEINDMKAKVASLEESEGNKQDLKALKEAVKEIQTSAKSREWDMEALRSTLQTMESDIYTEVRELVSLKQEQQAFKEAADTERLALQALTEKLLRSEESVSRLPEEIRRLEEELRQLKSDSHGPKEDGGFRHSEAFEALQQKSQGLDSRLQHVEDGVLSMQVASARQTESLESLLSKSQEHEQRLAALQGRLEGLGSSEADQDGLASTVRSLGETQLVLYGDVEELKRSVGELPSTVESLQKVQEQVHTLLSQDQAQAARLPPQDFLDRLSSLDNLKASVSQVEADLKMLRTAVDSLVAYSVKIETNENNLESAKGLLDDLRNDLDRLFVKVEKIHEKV
Protocol: Cell proliferation was measured by ^3H-thymidine incorporation into explanted normal human bladder epithelial cells, as previously described (Keay et al., 2004; Keay et al., 1996). Briefly, purified lyophilized synthetic APF was resuspended in acetonitrile/distilled water (1:1), diluted in serum-free MEM (containing only glutamine and antibiotics/antimycotics), and applied to the cells; cell controls received acetonitrile/distilled water diluted in serum-free MEM alone. Cells were then incubated at 37° C. in a 5% CO2 atmosphere for 48 hours. The cell contents harvested and methanol-fixed onto glass fiber filter paper, and the amount of radioactivity incorporated determined. Significant inhibition of 3H-thymidine incorporation was defined as a mean decrease in counts per minute of greater than 2 standard deviations from the mean of control cells for each plate. Double stranded siRNA corresponding to nucleotides 594-616 ([NT] sense strand; SEQ ID NO:5) of CKAP4/p63 (NM-006825) and a scrambled double stranded negative control siRNA ([NT] sense strand; SEQ ID NO:13) were prepared by preincubating single-stranded sense and anti-sense strands prepared with double A overhangs in serum-free MEM medium at 37° C. for 1 hour. […]

[3] = test system: normal human bladder epithelial cells; assay: 3H-thymidine incorporation cell proliferation assay; type: cell-based
Protocol: Cell proliferation was measured by ^3H-thymidine incorporation into explanted normal human bladder epithelial cells, as previously described (Keay et al., 2004; Keay et al., 1996). Briefly, purified lyophilized synthetic APF was resuspended in acetonitrile/distilled water (1:1), diluted in serum-free MEM (containing only glutamine and antibiotics/antimycotics), and applied to the cells; cell controls received acetonitrile/distilled water diluted in serum-free MEM alone. Cells were then incubated at 37° C. in a 5% CO2 atmosphere for 48 hours. The cell contents harvested and methanol-fixed onto glass fiber filter paper, and the amount of radioactivity incorporated determined. Significant inhibition of 3H-thymidine incorporation was defined as a mean decrease in counts per minute of greater than 2 standard deviations from the mean of control cells for each plate.

[4] = test system: normal human bladder epithelial cells; details: bladder epithelial cell proliferation; background statement; cited from earlier work
[5] = target: T2, cytoskeleton-associated protein 4/p63 (CKAP4/p63) (human, UniProt Q07065 1-602); assay: cell-based or functional assay
T2 sequence: T1 sequence (Q07065 1-602)

Molecule: biotinylated synthetic APF: APF biotinylated on the C-terminal lysine residue, carrying Galβ1-3GalNAcα-O-threonine (TVPAAVVVAK)
- antiproliferative activity as compared to the parent synthetic GalNAcβ1-3Gal-APF congener ([3]; primary normal bladder epithelial cells): approximately 80%

Molecule: rhodamine-labeled APF: synthetic APF glycopeptide with C-terminal lysine labelled with 5(6)-Rhodamine B isothiocyanate (TVPAAVVVAK)
- antiproliferative activity relative to synthetic, unlabeled APF ([3]; normal bladder epithelial cells): approximately 85%

Molecule: sialoglycopeptide inhibitor of bladder epithelial cell proliferation; nonapeptide TVPAAVVVA (SEQ ID NO:1) glycosylated on N-terminal threonine [APF, Sialic acid-galactose-N-acetylgalactosamine-threonine-valine-proline-alanine-alanine-valine-valine-valine-alanine]
- potency of APF (EC50) [4]: picomolar range

Now from value to molecule, other results behind:

- decrease in sensitivity of the cells to APF [2]: approximately one thousand-fold
Molecule: 5′-AACUUUUGAGUCCAUCUUGAGAA-3′ sense strand [double-stranded siRNA for CKAP4/p63]
- CKAP4/p63 protein expression relative to beta actin [1]: decreased protein expression of CKAP4/p63 relative to beta actin

- decrease in sensitivity of the cells to APF [2]: no decrease in sensitivity to APF
Molecule: 5′-AAUUCUGUAUGCUA CCUGUAGAA-3′ sense strand [scrambled siRNA, reference compound]
- CKAP4/p63 protein expression relative to beta actin [1]: little or no change

- sensitivity of the cells to APF after siRNA knockdown of CKAP4/p63 (3H-thymidine incorporation) [5]: ~1000 fold
B1: synthetic APF (antiproliferative factor) (peptide)
peptide: T(glycan)VPAAVVVA
modifications: reading uncertain; also: exact glycoform not given here
